The test has as its target T1, mouse TLR7 (Mus musculus, UniProt P58681).
T1 construct: tissue Jackson Labs; host or cells: live female BALB/c mice
T1 sequence (P58681 27-1050): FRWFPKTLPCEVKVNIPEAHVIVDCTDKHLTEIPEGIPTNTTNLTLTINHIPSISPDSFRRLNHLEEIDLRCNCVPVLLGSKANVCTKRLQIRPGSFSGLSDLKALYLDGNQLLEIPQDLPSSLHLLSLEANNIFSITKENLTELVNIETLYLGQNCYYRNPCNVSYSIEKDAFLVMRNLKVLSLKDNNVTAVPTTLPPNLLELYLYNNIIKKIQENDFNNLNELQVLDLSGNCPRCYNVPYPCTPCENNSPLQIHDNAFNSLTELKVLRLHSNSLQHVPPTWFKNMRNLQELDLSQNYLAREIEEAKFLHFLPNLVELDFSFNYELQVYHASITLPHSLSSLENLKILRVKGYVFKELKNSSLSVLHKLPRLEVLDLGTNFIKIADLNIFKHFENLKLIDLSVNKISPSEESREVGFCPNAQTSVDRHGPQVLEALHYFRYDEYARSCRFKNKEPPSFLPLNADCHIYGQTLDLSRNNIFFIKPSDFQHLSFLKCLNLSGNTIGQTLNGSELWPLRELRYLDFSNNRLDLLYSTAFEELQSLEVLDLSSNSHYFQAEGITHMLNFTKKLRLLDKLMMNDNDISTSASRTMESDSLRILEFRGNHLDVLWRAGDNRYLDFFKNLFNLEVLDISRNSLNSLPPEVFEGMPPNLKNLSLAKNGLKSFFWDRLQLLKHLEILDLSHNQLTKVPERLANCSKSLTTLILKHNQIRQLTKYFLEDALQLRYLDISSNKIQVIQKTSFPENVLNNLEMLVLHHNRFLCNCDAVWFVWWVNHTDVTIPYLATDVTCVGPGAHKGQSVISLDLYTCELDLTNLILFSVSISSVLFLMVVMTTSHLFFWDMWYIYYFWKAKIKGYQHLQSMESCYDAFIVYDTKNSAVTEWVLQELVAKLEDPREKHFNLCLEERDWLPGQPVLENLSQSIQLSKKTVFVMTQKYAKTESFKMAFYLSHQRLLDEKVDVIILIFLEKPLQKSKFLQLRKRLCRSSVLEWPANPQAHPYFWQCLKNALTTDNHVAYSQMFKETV
The test can be described thus: Short-term in vivo (STIV) assay, plasma IL-6 after R848. The following applies: plasma IL-6 after R848 s.c., BALB/c mice. As to the method: To assess compound potency in vivo against mouse TLR7, a short-term in vivo (STIV) assay was utilized. Briefly, mice were orally dosed with compounds and at various time points afterwards were injected subcutaneously with agonist R848 to stimulate TLR7. The plasma IL-6 level following R848 stimulation was then measured by ELISA to assess compound potency and duration-of-action. […] Therefore, the activity of compounds in the STIV assay can be confidently attributed to their modulation of the TLR7 pathway.
Six to eight week old female BALB/c mice (Jackson Labs, Bar Harbor, Me.) were dosed by oral gavage in 200 ul volume with antagonist compounds formulated in 0.5% aqueous methyl-cellulose (Sigma, St. Louis, Mo.). At various time points afterwards, mice were injected subcutaneously (s.c.) in 100 ul volume with 15 ug R848 (Resiquimod; GLSynthesis, Worcester, Mass.) to stimulate TLR7. Blood plasma was collected by cardiac puncture, and levels of IL-6 at 1.5 hours after TLR7 stimulation were then assessed by standard ELISA procedure according to the manufacturer's recommended protocol (R&D Systems).

Molecules are shown by their SMILES.

As for `C[C@H]1C[C@@H](N)CN(c2ccc(C#N)c3ncccc23)C1` [ER-888840, 5-((3R,5S)-3-amino-5-methylpiperidin-1-yl)quinoline-8-carbonitrile], the “% Suppression vs. Vehicle” value was found to be 100% (6 h after oral dose, 33 mg/kg); 53% (13 hr after oral dose, 11 mg/kg); 95% (13 hr after oral dose, 33 mg/kg); 100% (13 hr after oral dose, 100 mg/kg); 24% (24 hr after oral dose, 11 mg/kg); 0% (24 hr after oral dose, 33 mg/kg). Also, the “% Suppression vs. Vehicle” value is, setting by setting: (24 hr after oral dose, 100 mg/kg) 98%; (24 hr after oral dose, 300 mg/kg) 100%.
